Assay results as given in ChEMBL document CHEMBL5214900, “Design, Synthesis, and Biological Evaluation of Membrane-Active Bakuchiol Derivatives as Effective Broad-Spectrum Antibacterial Agents” (J Med Chem, 2021).
In brackets after ≈: the same amount, converted by molar mass. Activity calls are given as the source filed them. The rule behind the calls is not given here.

How the values were obtained:
Staphylococcus aureus [1] = experiment: Antibacterial activity against Staphylococcus aureus ATCC 29213 assessed as inhibition of bacterial growth incubated for 24 hrs by CLSI based broth dilution method; format: functional
Staphylococcus aureus [2] = experiment: Antibacterial activity against methicillin-resistant Staphylococcus aureus NCTC10442 assessed as inhibition of bacterial growth incubated for 24 hrs by CLSI based broth dilution method; format: functional
[3] = Hemolytic activity in rabbit RBC measured after 1 hrs by multimode reader assay; format: toxicity, cell-based, Oryctolagus cuniculus, Erythrocyte; conditions: rabbit red blood cells (erythrocytes)
Pseudomonas aeruginosa [4] = experiment: Antibacterial activity against Pseudomonas aeruginosa ATCC 9027 assessed as inhibition of bacterial growth incubated for 24 hrs by CLSI based broth dilution method; format: functional
Klebsiella pneumoniae = experiment: Antibacterial activity against Klebsiella pneumoniae ATCC 10031 assessed as inhibition of bacterial growth incubated for 24 hrs by CLSI based broth dilution method; format: functional
Staphylococcus aureus [5] = experiment: Antibacterial activity against Staphylococcus aureus ATCC 29213 assessed as fold increase in MIC incubated for 24 hrs in presence of 4.5 mM K+ by CLSI based broth dilution method; format: functional
Staphylococcus aureus [6] = experiment: Antibacterial activity against Staphylococcus aureus NCTC10442 assessed as fold increase in MIC incubated for 24 hrs in presence of 2.5 mM Ca2+ by CLSI based broth dilution method; format: functional
Acinetobacter baumannii [7] = experiment: Antibacterial activity against Acinetobacter baumannii ATCC 17978 assessed as fold increase in MIC incubated for 24 hrs in presence of 4.5 mM K+ by CLSI based broth dilution method; format: functional
Acinetobacter baumannii [8] = experiment: Antibacterial activity against Acinetobacter baumannii ATCC 17978 assessed as fold increase in MIC incubated for 24 hrs in presence of 2.5 mM Ca2+ by CLSI based broth dilution method; format: functional
Acinetobacter baumannii [9] = experiment: Antibacterial activity against Acinetobacter baumannii ATCC 17978 assessed as fold increase in MIC incubated for 24 hrs in presence of 1 mM Mg2+ by CLSI based broth dilution method; format: functional
Escherichia coli [10] = experiment: Antibacterial activity against Escherichia coli ATCC 25922 assessed as fold increase in MIC incubated for 24 hrs in presence of 4.5 mM K+ by CLSI based broth dilution method; format: functional
Escherichia coli [11] = experiment: Antibacterial activity against Escherichia coli ATCC 25922 assessed as fold increase in MIC incubated for 24 hrs in presence of 1 mM Mg2+ by CLSI based broth dilution method; format: functional
Cell membrane [12] = experiment: Disruption of membrane integrity in Staphylococcus aureus ATCC 29213 assessed as increase in fluorescence intensity at 1 to 8 times MIC by SYTOX green dye based fluorescence analysis; conditions: DDE = dose-dependent effect
Cell membrane [13] = experiment: Disruption of membrane integrity in Pseudomonas aeruginosa ATCC 9027 assessed as increase in red fluorescence intensity at 8 times MIC incubated for 2 hrs by SYTO 9/PI staining based fluorescence analysis; format: subcellular
Staphylococcus aureus [14] = experiment: Induction of cell death in Staphylococcus aureus ATCC 29213 assessed as residual living cells at 8 times MIC incubated for 2 hrs by SYTO 9/PI staining based fluorescence analysis relative to control; format: functional
Lipoteichoic acid = experiment: Displacement of BODIPY-TR-cadaverine from Bacillus subtilis Lipoteichoic acid at 4 times MIC measured for 30 mins by fluorescence based microplate reader assay relative to control
Lipopolysaccharide (LPS) [15] = experiment: Displacement of BODIPY-TR-cadaverine from Escherichia coli Lipopolysaccharide at 2 times MIC measured for 30 mins by fluorescence based microplate reader assay relative to control
Lipopolysaccharide (LPS) [16] = experiment: Displacement of BODIPY-TR-cadaverine from Escherichia coli Lipopolysaccharide at 4 times MIC measured for 30 mins by fluorescence based microplate reader assay relative to control
Staphylococcus aureus [17] = experiment: Induction of drug resistance in Staphylococcus aureus ATCC 29213 assessed as fold change in MIC measured after 19 passages by CLSI based broth dilution method; format: functional
Escherichia coli [18] = experiment: Induction of drug resistance in Escherichia coli ATCC 25922 assessed as fold change in MIC measured after 19 passages by CLSI based broth dilution method; format: functional
[19] = Cytotoxicity against mouse NCTC clone 929 cells assessed as cell viability at 6.25 ug/ml incubated for 24 hrs by CCK-8 assay relative to control; format: toxicity, cell-based; conditions: at 6.25 µg/mL, read-out: Activity
[20] = Cytotoxicity against mouse NCTC clone 929 cells assessed as cell viability at 12.5 ug/ml incubated for 24 hrs by CCK-8 assay relative to control; format: toxicity, cell-based; conditions: at 12.5 µg/mL, read-out: Activity
[21] = Cytotoxicity against HEK293 cells assessed as cell viability at 25 ug/ml incubated for 24 hrs by CCK-8 assay relative to control; format: toxicity, cell-based; conditions: human, at 25 µg/mL, read-out: Activity
[22] = Cytotoxicity against HEK293 cells assessed as cell viability at 50 ug/ml incubated for 24 hrs by CCK-8 assay relative to control; format: toxicity, cell-based; conditions: human, at 50 µg/mL, read-out: Activity
[23] = Cytotoxicity against HEK293 cells assessed as cell viability incubated for 24 hrs by CCK-8 assay; format: toxicity, cell-based; conditions: human
Escherichia coli [24] = experiment: Antibiofilm activity against Escherichia coli ATCC 25922 assessed reduction in biofilm formation at 0.39 ug/ml measured after 24 hrs by crystal violet staining based assay relative to control; format: functional; parameters: scale not given: the % may be the effect or the level left; conditions: dose 0.39 µg/ml
Staphylococcus aureus [25] = experiment: Antibiofilm activity against Staphylococcus aureus ATCC 29213 assessed reduction in biofilm formation at 0.39 ug/ml measured after 24 hrs by crystal violet staining based assay relative to control; format: functional; parameters: scale not given: the % may be the effect or the level left; conditions: dose 0.39 µg/ml
Staphylococcus aureus [26] = experiment: Antibacterial activity against Staphylococcus aureus ATCC 29213 assessed as eradication of preformed bacterial biofilm by measuring residual biofilm viability at 0.78 ug/ml incubated for 24 hrs by crystal violet staining based assay relative to control; format: functional; conditions: dose 0.78 µg/ml
Staphylococcus aureus [27] = experiment: Antibacterial activity against Staphylococcus aureus ATCC 29213 assessed as eradication of preformed bacterial biofilm by measuring residual biofilm viability at 6.25 ug/ml incubated for 24 hrs by crystal violet staining based assay relative to control; format: functional; conditions: dose 6.25 µg/ml
Staphylococcus aureus [28] = experiment: Antibacterial activity against Staphylococcus aureus ATCC 29213 assessed as eradication of preformed bacterial biofilm by measuring residual biofilm viability at 12.5 ug/ml incubated for 24 hrs by crystal violet staining based assay relative to control; format: functional; conditions: dose 12.5 µg/ml
Staphylococcus aureus [29] = experiment: Antibacterial activity against Staphylococcus aureus ATCC 29213 assessed as eradication of preformed bacterial biofilm by measuring residual biofilm viability at 25 ug/ml incubated for 24 hrs by crystal violet staining based assay relative to control; format: functional; conditions: dose 25 µg/ml
Pseudomonas aeruginosa [30] = experiment: Antibacterial activity against Pseudomonas aeruginosa ATCC 9027 in C57BL/6 mouse model of bacterial keratitis assessed as log reduction in number of viable bacterial colonies in infected cornea at 0.8 mg/ml, TOP administered 4 times a day for 3 consecutive days; format: functional; conditions: time 3 day
[31] = Toxicity in C57BL/6 mouse assessed as signs of toxicity in cornea at 0.8 mg/ml, TOP administered 4 times a day for 3 consecutive days; conditions: in vivo, topical_or_ocular, 72 h, time 3 day
[32] = Toxicity in C57BL/6 mouse assessed as corneal damage at 0.8 mg/ml, TOP administered 4 times a day for 3 consecutive days; conditions: in vivo, topical_or_ocular, 72 h, time 3 day

C=C[C@@](C)(/C=C/c1ccc(OCCCCN(CCCN(C)C)CCCN(C)C)cc1)CCC=C(C)C
MIC (Staphylococcus aureus [1]): 3.12 µg/mL (≈ 6.28 µM)
MIC (Staphylococcus aureus [2]): 1.56 µg/mL (≈ 3.13 µM)
HC50 at 1 h [3]: 113 µg/mL
MIC (Pseudomonas aeruginosa [4]): 3.12 µg/mL (≈ 6.28 µM)
MIC (Klebsiella pneumoniae): 3.12 µg/mL (≈ 6.28 µM)
fold change (FC) (Staphylococcus aureus [5]): <2
fold change (FC) (Staphylococcus aureus [6]): <2
fold change (FC) (Acinetobacter baumannii [7]): <2
fold change (FC) (Acinetobacter baumannii [8]): <2
fold change (FC) (Acinetobacter baumannii [9]): <2
fold change (FC) (Escherichia coli [10]): <2
fold change (FC) (Escherichia coli [11]): <2
Activity (Cell membrane [12]): Dde
Activity (Cell membrane [13]): Active
Activity (Staphylococcus aureus [14]): 2.2%
Activity (Lipoteichoic acid): 37.2%
Activity (Lipopolysaccharide (LPS) [15]): 53.3%
Activity (Lipopolysaccharide (LPS) [16]): 64.4%
fold change (FC) (Staphylococcus aureus [17]): < 4
fold change (FC) (Escherichia coli [18]): < 4
viability at 24 h, 6.25 ug/ml [19]: 84.9%
viability at 24 h, 12.5 ug/ml [20]: 84.5%
viability at 24 h, 25 ug/ml [21]: 63.3%
viability at 24 h, 50 ug/ml [22]: 14.4%
CC50 at 24 h [23]: 28.6 µg/mL (≈ 57.5 µM)
Activity (Escherichia coli [24]): 4.04%
Activity (Staphylococcus aureus [25]): 1.65%
Activity (Staphylococcus aureus [26]): 88.63%
Activity (Staphylococcus aureus [27]): 34.11%
Activity (Staphylococcus aureus [28]): 24.19%
Activity (Staphylococcus aureus [29]): 11.49%
log(activity) (Pseudomonas aeruginosa [30]): 2.95
Activity [31]: Non-Toxic
Activity [32]: Non-Toxic
